Measurements published in patent US20050245399A1, “Pyrazole derivatives as herbicidal compositions containing them” (ISHIHARA SANGYO KAISHA, LTD., priority 2004, published 2005).

Columns and labels:
Assay type in all cases: in vivo
[1] = tested on: barnyardgrass (Echinochloa crus-galli L.): ECHCG; assay: Test Example 1 pre-emergence herbicidal activity, ECHCG; conditions: visually observed 20th to 23rd day after application
Procedure, shortened: (§1)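 pots, upland field soil; sow; +1 d spray compound (WP or EC, a.i. at set dose, 500 L/ha water), pre-emergence; visual % growth control d20–23 (0 untreated, 100 complete kill).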

[2] = tested on: crabgrass (Digitaria sanguinalis L.): DIGSA; assay: Test Example 1 pre-emergence herbicidal activity, DIGSA; conditions: visually observed 20th to 23rd day after application
Procedure, shortened: as §1

[3] = tested on: green foxtail (Setaria viridis L.): SETVI; assay: Test Example 1 pre-emergence herbicidal activity, SETVI; conditions: visually observed 20th to 23rd day after application
Procedure, shortened: as §1

[4] = tested on: redroot pigweed (Amaranthus retroflexus L.): AMARE; assay: Test Example 1 pre-emergence herbicidal activity, AMARE; conditions: visually observed 20th to 23rd day after application
Procedure, shortened: as §1

[5] = tested on: prickly sida (Sida spinosa L.): SEDSP; assay: Test Example 1 pre-emergence herbicidal activity, SIDSP; conditions: visually observed 20th to 23rd day after application
Procedure, shortened: as §1

[6] = tested on: velvetleaf (Abutilon theophrasti): ABUTH; assay: Test Example 1 pre-emergence herbicidal activity, ABUTH; conditions: visually observed 20th to 23rd day after application
Procedure, shortened: as §1

[7] = tested on: rice (Oryza sativa L.): ORYSA; assay: Test Example 1 pre-emergence herbicidal activity, ORYSA; conditions: visually observed 20th to 23rd day after application
Procedure, shortened: as §1

[8] = tested on: wheat (Triticum aestivum L.): TRZAX; assay: Test Example 1 pre-emergence herbicidal activity, TRZAX; conditions: visually observed 20th to 23rd day after application
Procedure, shortened: as §1

[9] = tested on: corn (Zea mays L.): ZEAMX; assay: Test Example 1 pre-emergence herbicidal activity, ZEAMX; conditions: visually observed 20th to 23rd day after application
Procedure, shortened: as §1

[10] = tested on: soybean (Glycine max Merr.): GLXMA; assay: Test Example 1 pre-emergence herbicidal activity, GLXMA; conditions: visually observed 20th to 23rd day after application
Procedure, shortened: as §1

[11] = tested on: barnyardgrass (Echinochloa crus-galli L.), ECHCG; assay: Test Example 2 post-emergence (foliage treatment) herbicidal activity, ECHCG
Procedure, shortened: (§2)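 Herbicide was applied to foliage of seedlings raised in upland field soil: redroot pigweed at 0.1-1.5 leaves, barnyardgrass at 1.1-2.1, crabgrass at 1.0-2.0, rice at 1.0-2. A predetermined active ingredient amount was carried in 500 L/ha water with 0.1% (v/v) spreader; control (%) was assessed by eye after 20-23 days.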

[12] = tested on: crabgrass (Digitaria sanguinalis L.), DIGSA; assay: Test Example 2 post-emergence (foliage treatment) herbicidal activity, DIGSA
Procedure, shortened: as §2

[13] = tested on: green foxtail (Setaria viridis L.), SETVI; assay: Test Example 2 post-emergence (foliage treatment) herbicidal activity, SETVI
Procedure, shortened: (§3)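 Foliar spray of formulated compound (500 L/ha dilution water, 0.1% v/v spreader) onto young potted plants at defined leaf stages. Scored 0-100% by visual inspection 20-23 d post-spray.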

[14] = tested on: redroot pigweed (Amaranthus retroflexus L.), AMARE; assay: Test Example 2 post-emergence (foliage treatment) herbicidal activity, AMARE
Procedure, shortened: as §2

[15] = tested on: prickly sida (Sida spinosa L.), SIDSP; assay: Test Example 2 post-emergence (foliage treatment) herbicidal activity, SIDSP
Procedure, shortened: as §3

[16] = tested on: velvetleaf (Abutilon theophrasti), ABUTH; assay: Test Example 2 post-emergence (foliage treatment) herbicidal activity, ABUTH
Procedure, shortened: as §3

[17] = tested on: rice (Oryza sativa L.), ORYSA; assay: Test Example 2 post-emergence (foliage treatment) herbicidal activity, ORYSA
Procedure, shortened: as §2

[18] = tested on: wheat (Triticum aestivum L.), TRZAX; assay: Test Example 2 post-emergence (foliage treatment) herbicidal activity, TRZAX
Procedure, shortened: as §3

[19] = tested on: corn (Zea mays L.), ZEAMX; assay: Test Example 2 post-emergence (foliage treatment) herbicidal activity, ZEAMX
Procedure, shortened: as §3

[20] = tested on: soybean (Glycine max Merr.), GLXMA; assay: Test Example 2 post-emergence (foliage treatment) herbicidal activity, GLXMA
Procedure, shortened: as §3

[21] = tested on: barnyardgrass (Echinochiloa oryzicola: ECHOR); assay: Test Example 3 water application herbicidal activity (paddy), ECHOR; conditions: 63 g a.i./ha, water application under submerged condition at 0.5 leaf stage, visually observed 14th day after application; 0 = untreated control, 100 = complete kill
Procedure, shortened: (§4)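 Flooded paddy-soil pots in greenhouse; ECHOR and SCPJO sown, SAGPY tubers planted a day later, compound applied into 3–4 cm water at weeds' 0.5-leaf stage. Rice transplanted at 2-leaf stage, treated day 4 after transplanting. Visual growth control 0–100% at 14 days (weeds) and 21 days (rice) after application.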

[22] = tested on: japanese bulrush (Scirpus juncoides: SCPJO); assay: Test Example 3 water application herbicidal activity (paddy), SCPJO; conditions: 63 g a.i./ha, water application under submerged condition at 0.5 leaf stage, visually observed 14th day after application; 0 = untreated control, 100 = complete kill
Procedure, shortened: as §4

[23] = tested on: japanese ribbon wapato (Sagittaria pygmaea: SA GPY); assay: Test Example 3 water application herbicidal activity (paddy), SAGPY; conditions: 63 g a.i./ha, water application under submerged condition, tubers planted, visually observed 14th day after application; 0 = untreated control, 100 = complete kill
Procedure, shortened: as §4

[24] = tested on: rice (Oryza sativa L.: ORYSA); assay: Test Example 3 water application herbicidal activity (paddy), transplanted rice ORYSA; conditions: 63 g a.i./ha, water application 4th day after transplantation of 2 leaf stage rice, visually observed 21st day after application; 0 = untreated control, 100 = complete kill
Procedure, shortened: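 Submerged application in flooded paddy soil (3–4 cm water); weeds treated at 0.5-leaf stage, transplanted rice 4 d after transplanting. Scored visually as % growth control: weeds at 14 d, rice at 21 d.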

| Compound | growth controlling degree, ECHCO ([11]; 63 g a.i./ha) | growth controlling degree, DIGSP ([12]; 63 g a.i./ha) | growth controlling degree, SETVI ([13]; 63 g a.i./ha) | growth controlling degree, AMARE ([14]; 63 g a.i./ha) | growth controlling degree, SIDSP ([15]; 63 g a.i./ha) | growth controlling degree, ABUTH ([16]; 63 g a.i./ha) | growth controlling degree, ORYSA ([17]; 63 g a.i./ha) | growth controlling degree, TRZAX ([18]; 63 g a.i./ha) | growth controlling degree, ZEAMX ([19]; 63 g a.i./ha) | growth controlling degree, GLXMA ([20]; 63 g a.i./ha) | growth controlling degrees (%) ECHOR [21] | growth controlling degrees (%) SCPJO [22] | growth controlling degrees (%) SAGPY [23] | growth controlling degrees (%) ORYSA [24] | Pre-emergence Herbicidal Activity ECHCG (growth controlling degree) ([1]; Rate 63 g a.i./ha) | Pre-emergence Herbicidal Activity DIGSP (growth controlling degree) ([2]; Rate 63 g a.i./ha) | Pre-emergence Herbicidal Activity SETVI (growth controlling degree) ([3]; Rate 63 g a.i./ha) | Pre-emergence Herbicidal Activity AMARE (growth controlling degree) ([4]; Rate 63 g a.i./ha) | Pre-emergence Herbicidal Activity SIDSP (growth controlling degree) ([5]; Rate 63 g a.i./ha) | Pre-emergence Herbicidal Activity ABUTH (growth controlling degree) ([6]; Rate 63 g a.i./ha) | also measured |
| --- | --- | --- | --- | --- | --- | --- | --- | --- | --- | --- | --- | --- | --- | --- | --- | --- | --- | --- | --- | --- | --- |
| COC(=O)CN(C=O)c1c(OC)c(Cl)cc(F)c1-c1nn(C)c(OC(F)F)c1Cl [Compound 1-20] | 10% | 20% | 70% | 100% | 90% | 60% | 50% | 10% | 40% | 50% | 90% | 20% | 0% | 30% |  |  |  |  |  |  | Pre-emergence Herbicidal Activity ECHCG (growth controlling degree) ([1]; Rate 125 g a.i./ha): 10%; Pre-emergence Herbicidal Activity DIGSP (growth controlling degree) ([2]; Rate 125 g a.i./ha): 30%; Pre-emergence Herbicidal Activity SETVI (growth controlling degree) ([3]; Rate 125 g a.i./ha): 10%; Pre-emergence Herbicidal Activity AMARE (growth controlling degree) ([4]; Rate 125 g a.i./ha): 100%; Pre-emergence Herbicidal Activity SIDSP (growth controlling degree) ([5]; Rate 125 g a.i./ha): 98%; Pre-emergence Herbicidal Activity ABUTH (growth controlling degree) ([6]; Rate 125 g a.i./ha): 80%; Pre-emergence Herbicidal Activity ORYSA (growth controlling degree) ([7]; Rate 125 g a.i./ha): 0%; Pre-emergence Herbicidal Activity TRZAX (growth controlling degree) ([8]; Rate 125 g a.i./ha): 0%; Pre-emergence Herbicidal Activity ZEAMX (growth controlling degree) ([9]; Rate 125 g a.i./ha): 0%; Pre-emergence Herbicidal Activity GLXMA (growth controlling degree) ([10]; Rate 125 g a.i./ha): 10% |
| COc1c(Cl)cc(F)c(-c2nn(C)c(OC(F)F)c2Cl)c1NC(=O)CCc1ccccc1 [Compound 1-21] |  |  |  |  |  |  |  |  |  |  | 100% | 70% | 100% | 50% | 95% | 100% | 100% | 100% | 100% | 100% | Pre-emergence Herbicidal Activity ORYSA (growth controlling degree) ([7]; Rate 63 g a.i./ha): 40%; Pre-emergence Herbicidal Activity TRZAX (growth controlling degree) ([8]; Rate 63 g a.i./ha): 0%; Pre-emergence Herbicidal Activity ZEAMX (growth controlling degree) ([9]; Rate 63 g a.i./ha): 20%; Pre-emergence Herbicidal Activity GLXMA (growth controlling degree) ([10]; Rate 63 g a.i./ha): 10%; growth controlling degree, ECHCO ([11]; 31 g a.i./ha): 80%; growth controlling degree, DIGSP ([12]; 31 g a.i./ha): 60%; growth controlling degree, SETVI ([13]; 31 g a.i./ha): 95%; growth controlling degree, AMARE ([14]; 31 g a.i./ha): 100%; growth controlling degree, SIDSP ([15]; 31 g a.i./ha): 100%; growth controlling degree, ABUTH ([16]; 31 g a.i./ha): 100%; growth controlling degree, ORYSA ([17]; 31 g a.i./ha): 90%; growth controlling degree, TRZAX ([18]; 31 g a.i./ha): 40%; growth controlling degree, ZEAMX ([19]; 31 g a.i./ha): 90%; growth controlling degree, GLXMA ([20]; 31 g a.i./ha): 70% |
| COc1c(Cl)cc(F)c(-c2nn(C)c(OC(F)F)c2Cl)c1NC(=O)c1ccccc1F [Compound 1-22] | 100% | 100% | 100% | 100% | 100% | 100% | 95% | 40% | 90% | 98% | 100% | 95% | 98% | 40% | 80% | 100% | 100% | 100% | 100% | 100% | Pre-emergence Herbicidal Activity ORYSA (growth controlling degree) ([7]; Rate 63 g a.i./ha): 50%; Pre-emergence Herbicidal Activity TRZAX (growth controlling degree) ([8]; Rate 63 g a.i./ha): 10%; Pre-emergence Herbicidal Activity ZEAMX (growth controlling degree) ([9]; Rate 63 g a.i./ha): 20%; Pre-emergence Herbicidal Activity GLXMA (growth controlling degree) ([10]; Rate 63 g a.i./ha): 50% |
| COc1c(Cl)cc(F)c(-c2nn(C)c(OC(F)F)c2Cl)c1NC(=O)c1ccccc1Cl [Compound 1-23] | 98% | 90% | 100% | 100% | 100% | 100% | 90% | 40% | 80% | 98% | 100% | 80% | 98% | 40% | 80% | 100% | 95% | 100% | 100% | 90% | Pre-emergence Herbicidal Activity ORYSA (growth controlling degree) ([7]; Rate 63 g a.i./ha): 40%; Pre-emergence Herbicidal Activity TRZAX (growth controlling degree) ([8]; Rate 63 g a.i./ha): 40%; Pre-emergence Herbicidal Activity ZEAMX (growth controlling degree) ([9]; Rate 63 g a.i./ha): 0%; Pre-emergence Herbicidal Activity GLXMA (growth controlling degree) ([10]; Rate 63 g a.i./ha): 30% |
